Source: PMC7395176, “Retromer stabilization results in neuroprotection in a model of Amyotrophic Lateral Sclerosis” (Nature Communications, 2020)

Key:
[1] = system: Vps35, Vps26, and Vps29 mRNAs; design: method as in PMID 24747528; conditions: cited from earlier work
VPS29-VPS35 heterodimer = VPS29-VPS35 heterodimer (Homo sapiens, UniProt Q96QK1+Q9UBQ0); test: STD-NMR and WaterLogsy-NMR ligand-based binding experiments; conditions: STD- and WL-NMR competition experiments could not be performed
Experimental: We used a ligand-based NMR approach to localize the binding between compound 2a and the VPS29-VPS35 heterodimer. These techniques provide binding information without requiring any isotopic labeling of the proteins. Particularly, Saturation Transfer Difference NMR (STD-NMR)[32] and WaterLogsy-NMR (WL-NMR)[33] experiments were acquired in buffer solutions containing a large excess of compound 2a (500μM) with respect to VPS29-VPS35 (10 μM). Both STD-NMR and WL-NMR focus on the NMR signals of the ligand and utilize the magnetization transfer by the Nuclear Overhauser Effect (NOE) between protein and ligand. STD-NMR experiments are carried out by subtraction of a 1D ^1H spectrum where the protein protons are selectively irradiated (on-resonance spectrum) from a spectrum in which the protein is not saturated (off-resonance spectrum).
WL-NMR entails magnetization transfer to the ligand from either bulk water via a macromolecule, and/or the exchangeable protons and the water molecules present in the binding site. Positive peaks for proton resonances of the ligand in the WL-NMR spectrum are observed for binders in presence of the protein. […] As negative control, STD-NMR and WL-NMR experiments were performed for compound 2a in absence of the heterodimer. The absence of proton signals in the aromatic zone and the presence of negative signals in STD-NMR (Fig. 2k) and WL-NMR (Fig. 2l) spectra, respectively, confirms the binding between compound 2a and the VPS29-VPS35 heterodimer. Unfortunately, STD- and WL-NMR competition experiments between 2a and R55/1 could not be performed since the latter compound was not stable in our experimental conditions.
NMR spectra were acquired at 298K on a Bruker Avance NEO 700 MHz spectrometer equipped with a Z-gradient cryoprobe. The spectra were processed with the Bruker TOPSPIN 4.0.5 software packages. […] 1D ^1H spectra were recorded using a 1 s presaturation pulse with a B1 power of 200 Hz. […]

[2] = system: VPS35-VPS29 interaction / retromer; design: method as in PMID 24747528; conditions: cited from earlier work
APP processing = system: APP processing; design: method as in PMID 24747528; conditions: neurons carrying pathogenic APP mutations; cited from earlier work
VPS35 [3] = target: T1, VPS35 (Mus musculus, UniProt Q9EQH3+Q9QZ88); conditions: Neuro2a cells, 10 µM, 48 h, WB
Experimental: Protein extracts were collected, separated by SDS-PAGE and immunoblotted for VPS35 and the housekeeping gene β-Actin.
Neuro2a cells (ATCC® CCL-131™) were seeded in Dulbecco’s modified Eagle’s media (DMEM, Gibco) supplemented with FBS 10% (Gibco), L-glutamine (Gibco) 2 mM and penicillin/streptomycin 1% (Gibco). Depending on the experimental setting, we used 6-well, 12-well or 96-well dishes. Neuro2a were grow at 37 °C in a humidified 5% CO2 atmosphere. All experiments were carried out at least in triplicate. Compounds and transfections were done on cells showing 60–70% of confluence. Compounds were usually kept on cells for 48 h; Bortezomib (BTZ) was used at 10 nM for 6 h to inhibit proteasome.
Protein lysates from cells cultures were collected from plates receiving PBS 1× washing and subsequently the lysis buffer followed by sonication. Protein concentrations were measured by BCA protein assay kit (Thermofisher) according to the manufacturer’s recommendations. Ten µg of protein extract was loaded on 10% Mini-PROTEAN TGX Stain-Free precast gels for PAGE (Bio-Rad). Gel electrophoresis was performed at 100 V for 2 h. Gels were transferred on Immobilon®-P PVDF membrane according to the manufacturer’s instructions (Millipore). Blots were blocked in 5% BSA in Tris buffered saline plus 0.1% Tween-20 (TBS-T) for 1 h before receiving primary antibodies: goat α-VPS35 1:800 (ab10099, Abcam); rabbit α-VPS26 1:1000 (ab23892 Abcam), rabbit α-VPS26b 1:1000 (15915-1-AP, ProteinTech); rabbit α-VPS29 1:1000 (ab236796 Abcam); mouse α-βActin 1:25000 (Sigma–Aldrich); mouse α-Golgin97 1:1000 (Invitrogen); mouse α-Ubiquitin 1:500 (Merk); rabbit α-CD14 1:1000 (Bioss Inc); mouse α-Tubulin 1:5000 (Immunological Sciences MAB-80143) overnight at 4 °C on shaker. Following several washes with TBS-T, blots were incubated in appropriate HRP-labeled secondary antibodies (Bio-Rad) for 1 h at room temperature. Visualization of protein bands was obtained using ClarityMax-ECL (Bio-Rad) according to the manufacturer’s instructions and images were acquired on ChemiDoc (Bio-Rad). Quantifications were done using the Image Lab 6.0.1 software (Bio-Rad).

VPS35 [4] = target: T1, VPS35; test: Western blot for VPS35 in spinal cord extracts of treated C57BL6J mice; type: in vivo; design: from tissue; host or cells: mouse (lumbar) spinal cord, motor neurons; conditions: 10 mg/Kg intraperitoneally daily, 1 week
Experimental: Compounds 2a, 4a, and standard R55/1 (10 mg/Kg) were intraperitoneally injected in C57BL6J mice daily. After 1 week, mice were sacrificed, saline perfused to avoid CNS contamination by compounds in blood circulation, and SC protein extracts were assayed by WB. […] Therefore, phenyl-1,3-bis-guanylhydrazone 2a was selected as an early lead.

stability in NMR experimental conditions (VPS29-VPS35 heterodimer)	VPS35 levels (VPS35 [3])	Structure (SMILES)	transcription levels of CRC genes [1]	VPS35-VPS29 interaction [2]	VPS35 and VPS26 levels in cultured cells [2]	increase of VPS35 levels in cells [2] [%]	accumulation of amyloid-β peptides and APP processing (APP processing)	VPS35 levels in SC extracts (VPS35 [4])
not stable	increased	N=C(N)SCc1ccc(CSC(=N)N)s1 [R55/1]	did not influence	stabilizes the VPS35-VPS29 interaction	increases VPS35 and VPS26 levels	~60	reduced the accumulation of amyloid-β (Aβ) peptides as well as APP processing	–
–	increased VPS35 levels	NC(N)=N/N=C/c1ccc(/C=N/N=C(N)N)s1 [compound 3a]	–	–	–	–	–	–
–	increased VPS35 levels	N=C(N)SCc1cccc(CSC(=N)N)c1 [compound 4a]	–	–	–	–	–	slightly, but not significantly, increased
